Assay results reported in the SangsterLogP compilation.

Structure (SMILES) | logP
O=C(CNc1ccc2[nH]c(=O)[nH]c2c1)N1CCC(Cc2ccc(F)cc2)CC1 | 3.21
CCC(O)NC1CCC(CCN2CCN(c3cccc(Cl)c3Cl)CC2)CC1 (stereo not given) | 4.29
O=C(NCCCCN1CCC(Nc2cccc(C(F)(F)F)c2)CC1)c1ccc(Br)cc1 | 3.76
O=C(Nc1ccc2[nH]c(=O)oc2c1)C(=O)N1CCC(Cc2ccccc2)CC1 | 3.78
CC(=O)NC1CCC(CCN2CCN(c3cccc(Cl)c3Cl)CC2)CC1 (stereo not given) | 4.18
O=C(NCCCCN1CCC(Oc2cccc(C(F)(F)F)c2)CC1)c1ccnc2ccccc12 | 4.22
CS(=O)(=O)N[C@H]1CC[C@H](CCN2CCN(c3cccc(Cl)c3Cl)CC2)CC1 | 4.03
O=C(NCCCCN1CCC(c2cccc(C(F)(F)F)c2)CC1)c1ccc(Br)cc1 | 4.28
N#Cc1cc(N2CCN(CCCCNC(=O)C=Cc3cccnc3)CC2)cc(C(F)(F)F)c1 | 3.62
N#Cc1cc(N2CCN(CCCCNC(=O)c3cnc4ccccc4c3)CC2)cc(C(F)(F)F)c1 | 4.55
